Source: patent publication US9809578B2, “Pyrazolyl urea, thiourea, guanidine and cyanoguanidine compounds as trkA kinase inhibitors” (Array BioPharma Inc., priority 2012, dated 2017)

Experiments:
Type in all cases: biochemical
Conditions in all cases: 10 μM, ATP near Km
TLK2 = target: T1, TLK2 (Homo sapiens, UniProt Q86UE8); experiment: KinaseProfiler TLK2
T1 construct: purchased Millipore, Inc. (KinaseProfiler service)
Source text: (§1) The compound was run in duplicate at a concentration of ATP near the Km for each individual kinase according to Millipore's specifications.

JNK1alpha1 = target: T2, JNK1alpha1 (Homo sapiens, UniProt P45983); experiment: KinaseProfiler JNK1alpha1
T2 construct: purchased Millipore, Inc. (KinaseProfiler service)
Source text: as §1

Pim-1 = target: T3, Pim-1 (Homo sapiens, UniProt P11309); experiment: KinaseProfiler Pim-1
T3 construct: purchased Millipore, Inc. (KinaseProfiler service)
Source text: as §1

MAPKAP-K3 = target: T4, MAPKAP-K3 (Homo sapiens, UniProt Q16644); experiment: KinaseProfiler MAPKAP-K3
T4 construct: purchased Millipore, Inc. (KinaseProfiler service)
Source text: as §1

MYLK = target: T5, MYLK (Homo sapiens, UniProt Q15746); experiment: KinaseProfiler MYLK
T5 construct: purchased Millipore, Inc. (KinaseProfiler service)
Source text: as §1

Axl = target: T6, Axl (Homo sapiens, UniProt P30530); experiment: KinaseProfiler Axl
T6 construct: purchased Millipore (KinaseProfiler service)
Source text: as §1

ROCK-II = target: T7, ROCK-II (Homo sapiens, UniProt O75116); experiment: KinaseProfiler ROCK-II
T7 construct: purchased Millipore, Inc. (KinaseProfiler service)
Source text: as §1

GRK6 = target: T8, GRK6 (Homo sapiens, UniProt P43250); experiment: KinaseProfiler GRK6
T8 construct: purchased Millipore, Inc. (KinaseProfiler service)
Source text: as §1

Met = target: T9, Met (Homo sapiens, UniProt P08581); experiment: KinaseProfiler Met
T9 construct: purchased Millipore, Inc. (KinaseProfiler service)
Source text: as §1

PAK6 = target: T10, PAK6 (Homo sapiens, UniProt Q9NQU5); experiment: KinaseProfiler PAK6
T10 construct: purchased Millipore, Inc. (KinaseProfiler service)
Source text: as §1

PASK = target: T11, PASK (Homo sapiens, UniProt Q96RG2); experiment: KinaseProfiler PASK
T11 construct: purchased Millipore, Inc. (KinaseProfiler service)
Source text: as §1

CDK3/cyclinE = target: T12, CDK3/cyclinE (Homo sapiens, UniProt Q00526); experiment: KinaseProfiler CDK3/cyclinE
T12 construct: purchased Millipore, Inc. (KinaseProfiler service)
Source text: as §1

GRK5 = target: T13, GRK5 (Homo sapiens, UniProt P34947); experiment: KinaseProfiler GRK5
T13 construct: purchased Millipore, Inc. (KinaseProfiler service)
Source text: as §1

ULK2 = target: T14, ULK2 (Homo sapiens, UniProt Q8IYT8); experiment: KinaseProfiler ULK2
T14 construct: purchased Millipore, Inc. (KinaseProfiler service)
Source text: as §1

MuSK = target: T15, MuSK (Homo sapiens, UniProt O15146); experiment: KinaseProfiler MuSK
T15 construct: purchased Millipore, Inc. (KinaseProfiler service)
Source text: as §1

AKT2 = target: T16, AKT2 (Homo sapiens, UniProt P31751); experiment: KinaseProfiler AKT2
T16 construct: purchased Millipore (KinaseProfiler service)
Source text: as §1

CK1gamma1 = target: T17, CK1gamma1 (Homo sapiens, UniProt Q9HCP0); experiment: KinaseProfiler CK1gamma1
T17 construct: purchased Millipore, Inc. (KinaseProfiler service)
Source text: as §1

CDK9/cyclinT1 = target: T18, CDK9/cyclinT1 (Homo sapiens, UniProt P50750); experiment: KinaseProfiler CDK9/cyclinT1
T18 construct: purchased Millipore, Inc. (KinaseProfiler service)
Source text: as §1

NEK11 = target: T19, NEK11 (Homo sapiens, UniProt Q8NG66); experiment: KinaseProfiler NEK11
T19 construct: purchased Millipore, Inc. (KinaseProfiler service)
Source text: as §1

Flt3 = target: T20, Flt3 (Homo sapiens, UniProt P36888); experiment: KinaseProfiler Flt3
T20 construct: purchased Millipore, Inc. (KinaseProfiler service)
Source text: as §1

HIPK1 = target: T21, HIPK1 (Homo sapiens, UniProt Q86Z02); experiment: KinaseProfiler HIPK1
T21 construct: purchased Millipore, Inc. (KinaseProfiler service)
Source text: as §1

CK1gamma3 = target: T22, CK1gamma3 (Homo sapiens, UniProt Q9Y6M4); experiment: KinaseProfiler CK1gamma3
T22 construct: purchased Millipore, Inc. (KinaseProfiler service)
Source text: as §1

IKKalpha = target: T23, IKKalpha (Homo sapiens, UniProt O15111); experiment: KinaseProfiler IKKalpha
T23 construct: purchased Millipore, Inc. (KinaseProfiler service)
Source text: as §1

MST1 = target: T24, MST1 (Homo sapiens, UniProt Q13043); experiment: KinaseProfiler MST1
T24 construct: purchased Millipore, Inc. (KinaseProfiler service)
Source text: as §1

LKB1 = target: T25, LKB1 (Homo sapiens, UniProt Q15831); experiment: KinaseProfiler LKB1
T25 construct: purchased Millipore, Inc. (KinaseProfiler service)
Source text: as §1

SRPK1 = target: T26, SRPK1 (Homo sapiens, UniProt Q96SB4); experiment: KinaseProfiler SRPK1
T26 construct: purchased Millipore, Inc. (KinaseProfiler service)
Source text: as §1

CHK1 = target: T27, CHK1 (Homo sapiens, UniProt O14757); experiment: KinaseProfiler CHK1
T27 construct: purchased Millipore, Inc. (KinaseProfiler service)
Source text: as §1

PTK6 = target: T28, PTK6 (Homo sapiens, UniProt Q13882); experiment: KinaseProfiler PTK6
T28 construct: purchased Millipore, Inc. (KinaseProfiler service)
Source text: as §1

CAMK2g = target: T29, CAMK2g (Homo sapiens, UniProt Q13555); experiment: KinaseProfiler CAMK2g
T29 construct: purchased Millipore (KinaseProfiler service)
Source text: as §1

Pim-3 = target: T30, Pim-3 (Homo sapiens, UniProt Q86V86); experiment: KinaseProfiler Pim-3
T30 construct: purchased Millipore, Inc. (KinaseProfiler service)
Source text: as §1

Rsk2 = target: T31, Rsk2 (Homo sapiens, UniProt P51812); experiment: KinaseProfiler Rsk2
T31 construct: purchased Millipore, Inc. (KinaseProfiler service)
Source text: as §1

JAK2 = target: T32, JAK2 (Homo sapiens, UniProt O60674); experiment: KinaseProfiler JAK2
T32 construct: purchased Millipore, Inc. (KinaseProfiler service)
Source text: as §1

PKCalpha = target: T33, PKCalpha (Homo sapiens, UniProt P17252); experiment: KinaseProfiler PKCalpha
T33 construct: purchased Millipore, Inc. (KinaseProfiler service)
Source text: as §1

MELK = target: T34, MELK (Homo sapiens, UniProt Q14680); experiment: KinaseProfiler MELK
T34 construct: purchased Millipore, Inc. (KinaseProfiler service)
Source text: as §1

GRK7 = target: T35, GRK7 (Homo sapiens, UniProt Q8WTQ7); experiment: KinaseProfiler GRK7
T35 construct: purchased Millipore, Inc. (KinaseProfiler service)
Source text: as §1

HIPK2 = target: T36, HIPK2 (Homo sapiens, UniProt Q9H2X6); experiment: KinaseProfiler HIPK2
T36 construct: purchased Millipore, Inc. (KinaseProfiler service)
Source text: as §1

mTOR = target: T37, mTOR (Homo sapiens, UniProt P42345); experiment: KinaseProfiler mTOR
T37 construct: purchased Millipore, Inc. (KinaseProfiler service)
Source text: as §1

PKCiota = target: T38, PKCiota (Homo sapiens, UniProt P41743); experiment: KinaseProfiler PKCiota
T38 construct: purchased Millipore, Inc. (KinaseProfiler service)
Source text: as §1

EphA7 = target: T39, EphA7 (Homo sapiens, UniProt Q15375); experiment: KinaseProfiler EphA7
T39 construct: purchased Millipore, Inc. (KinaseProfiler service)
Source text: as §1

DRAK1 = target: T40, DRAK1 (Homo sapiens, UniProt Q9UEE5); experiment: KinaseProfiler DRAK1
T40 construct: purchased Millipore, Inc. (KinaseProfiler service)
Source text: as §1

VRK2 = target: T41, VRK2 (Homo sapiens, UniProt Q86Y07); experiment: KinaseProfiler VRK2
T41 construct: purchased Millipore, Inc. (KinaseProfiler service)
Source text: as §1

PKCbetaI = target: T42, PKCbetaI (Homo sapiens, UniProt P05771); experiment: KinaseProfiler PKCbetaI
T42 construct: purchased Millipore, Inc. (KinaseProfiler service)
Source text: as §1

p38beta = target: T43, p38beta (Homo sapiens, UniProt Q15759); experiment: KinaseProfiler p38beta
T43 construct: purchased Millipore, Inc. (KinaseProfiler service)
Source text: as §1

T21 sequence (Q86Z02 whole entry): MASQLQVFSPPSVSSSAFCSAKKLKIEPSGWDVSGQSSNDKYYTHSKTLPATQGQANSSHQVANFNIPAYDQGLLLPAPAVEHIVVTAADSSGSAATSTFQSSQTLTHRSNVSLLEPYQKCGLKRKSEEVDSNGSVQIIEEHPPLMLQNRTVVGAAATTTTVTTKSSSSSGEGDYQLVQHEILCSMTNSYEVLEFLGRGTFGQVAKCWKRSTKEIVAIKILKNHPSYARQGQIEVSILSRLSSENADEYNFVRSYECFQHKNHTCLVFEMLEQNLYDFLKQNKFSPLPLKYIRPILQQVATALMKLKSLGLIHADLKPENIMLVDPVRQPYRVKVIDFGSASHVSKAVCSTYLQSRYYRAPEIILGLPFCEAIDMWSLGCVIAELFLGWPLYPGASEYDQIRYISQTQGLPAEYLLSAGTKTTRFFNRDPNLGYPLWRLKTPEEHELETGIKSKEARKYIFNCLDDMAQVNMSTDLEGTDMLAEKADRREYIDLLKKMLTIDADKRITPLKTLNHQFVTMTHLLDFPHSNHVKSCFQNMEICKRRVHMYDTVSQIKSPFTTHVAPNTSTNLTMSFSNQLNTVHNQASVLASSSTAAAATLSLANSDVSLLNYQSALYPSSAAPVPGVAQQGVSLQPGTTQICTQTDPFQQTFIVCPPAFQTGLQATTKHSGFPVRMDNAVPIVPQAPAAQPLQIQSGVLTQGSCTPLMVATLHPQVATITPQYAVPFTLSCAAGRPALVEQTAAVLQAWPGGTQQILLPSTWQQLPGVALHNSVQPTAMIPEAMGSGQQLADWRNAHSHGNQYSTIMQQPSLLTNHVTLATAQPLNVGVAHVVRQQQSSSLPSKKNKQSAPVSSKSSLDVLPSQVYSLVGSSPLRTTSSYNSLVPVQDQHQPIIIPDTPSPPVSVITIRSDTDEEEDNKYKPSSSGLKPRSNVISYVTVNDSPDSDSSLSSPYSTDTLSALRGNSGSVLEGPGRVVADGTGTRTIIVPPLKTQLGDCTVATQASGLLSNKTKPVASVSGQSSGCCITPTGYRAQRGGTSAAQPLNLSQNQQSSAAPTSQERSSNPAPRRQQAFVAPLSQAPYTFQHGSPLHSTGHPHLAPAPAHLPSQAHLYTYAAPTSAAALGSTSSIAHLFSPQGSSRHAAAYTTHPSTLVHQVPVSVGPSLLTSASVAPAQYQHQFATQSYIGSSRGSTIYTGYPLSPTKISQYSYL
T43 sequence (Q15759 whole entry): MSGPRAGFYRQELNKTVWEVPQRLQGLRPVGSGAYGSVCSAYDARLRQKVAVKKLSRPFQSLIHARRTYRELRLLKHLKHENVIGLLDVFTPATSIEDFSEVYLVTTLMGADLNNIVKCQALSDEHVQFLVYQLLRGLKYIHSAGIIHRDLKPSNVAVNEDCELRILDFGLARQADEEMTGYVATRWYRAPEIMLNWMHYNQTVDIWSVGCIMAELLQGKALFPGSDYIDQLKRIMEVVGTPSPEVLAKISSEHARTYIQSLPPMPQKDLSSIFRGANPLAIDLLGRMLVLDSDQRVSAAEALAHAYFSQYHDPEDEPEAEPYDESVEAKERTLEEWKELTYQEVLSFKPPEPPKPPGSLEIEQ
T26 sequence (Q96SB4 whole entry): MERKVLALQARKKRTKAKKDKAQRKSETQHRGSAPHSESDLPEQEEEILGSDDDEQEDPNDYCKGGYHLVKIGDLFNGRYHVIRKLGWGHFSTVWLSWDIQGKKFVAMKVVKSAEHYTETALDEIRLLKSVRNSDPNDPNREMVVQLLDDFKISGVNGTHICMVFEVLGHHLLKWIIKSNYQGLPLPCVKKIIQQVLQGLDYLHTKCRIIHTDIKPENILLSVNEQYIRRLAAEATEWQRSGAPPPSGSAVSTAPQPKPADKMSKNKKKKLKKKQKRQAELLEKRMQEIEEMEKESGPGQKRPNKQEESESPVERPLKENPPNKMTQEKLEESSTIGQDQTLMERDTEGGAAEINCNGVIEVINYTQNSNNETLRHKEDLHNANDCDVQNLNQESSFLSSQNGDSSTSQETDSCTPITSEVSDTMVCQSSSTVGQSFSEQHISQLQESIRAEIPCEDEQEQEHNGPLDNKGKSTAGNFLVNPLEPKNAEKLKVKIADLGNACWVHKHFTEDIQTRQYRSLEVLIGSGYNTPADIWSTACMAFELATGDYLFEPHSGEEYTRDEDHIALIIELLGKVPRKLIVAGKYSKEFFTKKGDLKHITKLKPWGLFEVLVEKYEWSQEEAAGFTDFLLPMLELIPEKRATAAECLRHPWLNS
T3 sequence (P11309 whole entry): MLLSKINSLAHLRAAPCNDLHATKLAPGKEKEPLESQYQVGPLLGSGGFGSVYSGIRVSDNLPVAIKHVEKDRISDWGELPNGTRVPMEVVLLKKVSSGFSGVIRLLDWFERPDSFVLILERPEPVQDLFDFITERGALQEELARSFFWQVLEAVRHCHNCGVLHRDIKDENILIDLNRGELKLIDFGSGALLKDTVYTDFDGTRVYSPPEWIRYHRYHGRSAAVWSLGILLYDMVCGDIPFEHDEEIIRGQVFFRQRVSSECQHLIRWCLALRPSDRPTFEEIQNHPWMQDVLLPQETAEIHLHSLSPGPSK
T22 sequence (Q9Y6M4 whole entry): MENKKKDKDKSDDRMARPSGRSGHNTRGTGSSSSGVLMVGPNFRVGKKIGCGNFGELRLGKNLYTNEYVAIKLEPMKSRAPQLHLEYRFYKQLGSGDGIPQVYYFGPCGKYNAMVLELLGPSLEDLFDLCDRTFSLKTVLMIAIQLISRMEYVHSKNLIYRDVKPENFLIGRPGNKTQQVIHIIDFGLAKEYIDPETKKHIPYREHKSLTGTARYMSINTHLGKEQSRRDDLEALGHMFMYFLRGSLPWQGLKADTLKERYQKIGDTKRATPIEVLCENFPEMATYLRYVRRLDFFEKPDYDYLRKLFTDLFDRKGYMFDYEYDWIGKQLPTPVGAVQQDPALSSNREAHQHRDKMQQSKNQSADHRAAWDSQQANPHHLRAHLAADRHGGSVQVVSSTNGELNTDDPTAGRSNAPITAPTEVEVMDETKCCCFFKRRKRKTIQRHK
T1 sequence (Q86UE8 whole entry): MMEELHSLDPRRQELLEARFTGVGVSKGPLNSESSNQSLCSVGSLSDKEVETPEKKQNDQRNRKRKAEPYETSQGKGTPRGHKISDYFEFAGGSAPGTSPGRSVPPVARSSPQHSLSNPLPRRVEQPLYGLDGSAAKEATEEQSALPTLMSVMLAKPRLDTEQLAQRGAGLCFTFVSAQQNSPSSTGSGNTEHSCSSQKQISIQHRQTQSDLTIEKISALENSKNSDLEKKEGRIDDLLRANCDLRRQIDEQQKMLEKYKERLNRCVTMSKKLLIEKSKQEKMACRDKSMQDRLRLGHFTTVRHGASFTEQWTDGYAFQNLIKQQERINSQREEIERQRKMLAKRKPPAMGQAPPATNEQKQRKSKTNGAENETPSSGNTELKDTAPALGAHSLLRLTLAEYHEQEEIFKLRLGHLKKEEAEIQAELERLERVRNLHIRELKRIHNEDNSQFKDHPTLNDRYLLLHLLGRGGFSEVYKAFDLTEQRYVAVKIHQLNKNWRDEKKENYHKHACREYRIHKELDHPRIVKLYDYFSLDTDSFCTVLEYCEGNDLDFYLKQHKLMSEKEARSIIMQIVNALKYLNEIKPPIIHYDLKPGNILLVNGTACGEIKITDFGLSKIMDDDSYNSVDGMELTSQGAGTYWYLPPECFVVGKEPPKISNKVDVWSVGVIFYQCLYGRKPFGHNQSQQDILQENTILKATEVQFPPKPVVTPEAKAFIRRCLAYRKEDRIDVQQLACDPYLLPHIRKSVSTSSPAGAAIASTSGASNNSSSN
T34 sequence (Q14680 whole entry): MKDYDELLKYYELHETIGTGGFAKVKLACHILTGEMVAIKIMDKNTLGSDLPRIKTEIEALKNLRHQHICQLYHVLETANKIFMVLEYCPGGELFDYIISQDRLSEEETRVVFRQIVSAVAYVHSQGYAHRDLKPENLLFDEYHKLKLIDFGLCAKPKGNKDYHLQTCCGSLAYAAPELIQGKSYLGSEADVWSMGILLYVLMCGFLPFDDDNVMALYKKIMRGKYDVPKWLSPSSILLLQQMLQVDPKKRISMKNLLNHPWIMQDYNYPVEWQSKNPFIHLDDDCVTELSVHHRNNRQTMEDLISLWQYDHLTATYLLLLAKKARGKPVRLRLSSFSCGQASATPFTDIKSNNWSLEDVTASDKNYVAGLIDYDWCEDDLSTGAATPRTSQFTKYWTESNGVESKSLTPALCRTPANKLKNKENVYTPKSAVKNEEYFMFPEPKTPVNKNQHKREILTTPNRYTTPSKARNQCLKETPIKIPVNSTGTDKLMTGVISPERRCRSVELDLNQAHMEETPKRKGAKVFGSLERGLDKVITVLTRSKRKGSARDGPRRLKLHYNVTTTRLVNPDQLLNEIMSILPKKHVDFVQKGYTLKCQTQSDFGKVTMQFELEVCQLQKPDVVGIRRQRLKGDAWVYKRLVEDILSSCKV

`Cc1c(-c2cnn(C)c2)nn(-c2ccccc2)c1NC(=O)Nc1cc(C(F)(F)F)nn1-c1ccccc1` [Example 3, 1-(1′,4-dimethyl-1-phenyl-1H,1′H-[3,4′-bipyrazol]-5-yl)-3-(1-phenyl-3-(trifluoromethyl)-1H-pyrazol-5-yl)urea] was tested, and the “Avg POC” value (TLK2) was 108.5 POC, the “Avg POC” value (JNK1alpha1) was 111.5 POC and the “Avg POC” value (Pim-1) was 119.5 POC. The “Avg POC” value (MAPKAP-K3) was 128.5 POC, the “Avg POC” value (MYLK) was 122 POC and the “Avg POC” value (Axl) was 117 POC. The “Avg POC” value (ROCK-II) was 110 POC, the “Avg POC” value (GRK6) was 105 POC and the “Avg POC” value (Met) was 129 POC. For the same compound, the “Avg POC” value (PAK6) was 167 POC, the “Avg POC” value (PASK) was 147 POC and the “Avg POC” value (CDK3/cyclinE) was 103 POC. The “Avg POC” value (GRK5) was 84 POC, the “Avg POC” value (ULK2) was 98 POC and the “Avg POC” value (MuSK) was 82.5 POC. The “Avg POC” value (AKT2) was 219.5 POC, the “Avg POC” value (CK1gamma1) was 112 POC and the “Avg POC” value (CDK9/cyclinT1) was 107.5 POC. The “Avg POC” value (NEK11) was 110 POC, the “Avg POC” value (Flt3) was 71 POC and the “Avg POC” value (HIPK1) was 115.5 POC. The “Avg POC” value (CK1gamma3) was 125 POC, the “Avg POC” value (IKKalpha) was 127 POC and the “Avg POC” value (MST1) was 92.5 POC. For the same compound, the “Avg POC” value (LKB1) was 95.5 POC, the “Avg POC” value (SRPK1) was 111 POC and the “Avg POC” value (CHK1) was 108 POC. The “Avg POC” value (PTK6) was 110 POC, the “Avg POC” value (CAMK2g) was 112 POC and the “Avg POC” value (Pim-3) was 107.5 POC. For the same compound, the “Avg POC” value (Rsk2) was 134 POC, the “Avg POC” value (JAK2) was 136.5 POC and the “Avg POC” value (PKCalpha) was 104 POC. For the same compound, the “Avg POC” value (MELK) was 115 POC, the “Avg POC” value (GRK7) was 104.5 POC and the “Avg POC” value (HIPK2) was 101.5 POC. For the same compound, the “Avg POC” value (mTOR) was 78.5 POC, the “Avg POC” value (PKCiota) was 69.5 POC and the “Avg POC” value (EphA7) was 91 POC. The “Avg POC” value (DRAK1) was 129 POC, the “Avg POC” value (VRK2) was 96.5 POC and the “Avg POC” value (PKCbetaI) was 87 POC. For the same compound, the “Avg POC” value (p38beta) was 102 POC.
